Tests used:
Type in all cases: in vivo
Sunflower [1] = test: Test C preemergence; details: visual evaluation after 12 to 14 days
wild oat (Avena fatua) = test: Test B postemergence; details: 13 to 15 days
Summary of the method: (§1)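 Preemergence: seeds planted and treated with test chemicals in non-phytotoxic solvent with surfactant; postemergence on plants 2–18 cm (1- to 4-leaf stage). Kept in greenhouse 13–15 days, then visually rated against controls on a 0 (no effect) to 100 (complete control) scale.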

[2] = tested on: cocklebur (Xanthium strumarium); test: Test B postemergence; details: 13 to 15 days
Summary of the method: as §1

[3] = tested on: lambsquarters (Chenopodium album); test: Test B postemergence; details: 13 to 15 days
Summary of the method: as §1

[4] = tested on: crabgrass (Digitaria sanguinalis); test: Test B postemergence; details: 13 to 15 days
Summary of the method: as §1

[5] = tested on: giant foxtail (Setaria faberii); test: Test C preemergence; details: for Plant response rating (0 to 100), Foxtail, Giant: visual evaluation after 12 to 14 days
Summary of the method: (§2)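 Preemergence: seeds sown then treated. Postemergence: plants 2–18 cm, 1- to 4-leaf. Both with surfactant-containing solvent formulation; visual injury scored 0–100 after 12–14 d.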

[6] = tested on: woolly cupgrass (Eriochloa villosa); test: Test C preemergence; details: for Plant response rating (0 to 100), Cupgrass, Woolly: visual evaluation after 12 to 14 days
Summary of the method: as §2

Nightshade = test: Test C preemergence
Sunflower [7] = test: Test C preemergence
[8] = tested on: cocklebur (Xanthium strumarium); test: Test C preemergence; details: for Plant response rating (0 to 100), Cocklebur: visual evaluation after 12 to 14 days
Summary of the method: as §2

[9] = tested on: pigweed (Amaranthus retroflexus); test: Test C preemergence; details: for Plant response rating (0 to 100), Pigweed: visual evaluation after 12 to 14 days
Summary of the method: as §2

soybean (Glycine max) = test: Test C preemergence; details: for Plant response rating (0 to 100), Soybean: visual evaluation after 12 to 14 days
Summary of the method: as §2

[10] = tested on: bermudagrass (Cynodon dactylon); test: Test C preemergence; details: for Plant response rating (0 to 100 where 0 is no effect and 100 is complete control), Bermudagrass: visual evaluation after 12 to 14 days
Summary of the method: as §2

[11] = tested on: lambsquarters (Chenopodium album); test: Test C preemergence; details: for Plant response rating (0 to 100), Lambsquarters: visual evaluation after 12 to 14 days
Summary of the method: as §2

[12] = tested on: johnsongrass (Sorghum halepense); test: Test C preemergence; details: for Plant response rating (0 to 100), Johnsongrass: visual evaluation after 12 to 14 days
Summary of the method: as §2

[13] = tested on: common ragweed (Ambrosia elatior); test: Test C preemergence
Summary of the method: as §2

corn (Zea mays) = test: Test C preemergence; details: for Plant response rating (0 to 100), Corn: visual evaluation after 12 to 14 days
Summary of the method: as §2

kochia (Kochia scoparia) = test: Test C preemergence; details: for Plant response rating (0 to 100), Kochia: visual evaluation after 12 to 14 days
Summary of the method: as §2

[14] = tested on: Surinam grass (Brachiaria decumbens); test: Test C preemergence; details: for Plant response rating (0 to 100), Surinam grass: visual evaluation after 12 to 14 days
Summary of the method: as §2

[15] = tested on: velvetleaf (Abutilon theophrasti); test: Test C preemergence; details: for Plant response rating (0 to 100), Velvetleaf: visual evaluation after 12 to 14 days
Summary of the method: as §2

[16] = Rate 125 g/ha, scale 0 (no effect) to 100 (complete control)
[17] = Rate 500 g/ha, scale 0 to 100, 0 is no effect, 100 is complete control
[18] = Preemergence, Rate 500 g/ha, scale 0 to 100
[19] = Rate 62 g/ha, scale 0 to 100, 0 no effect, 100 complete control
[20] = preemergence, Rate 125 g/ha, scale 0 to 100, 0 no effect, 100 complete control
[21] = Rate 125 g/ha, scale 0 to 100, 0 no effect, 100 complete control
[22] = preemergence, Rate 62 g/ha, scale 0 to 100
[23] = preemergence, Rate 250 g/ha, scale 0 to 100, 0 no effect, 100 complete control

O=C1C(n2ccc(C3CC3)n2)CCN1c1cccc(C(F)(F)F)c1 (stereo not drawn) [Compound 8]
100: Plant response rating, Foxtail, Giant [5, 18] | Plant response rating, Pigweed [9, 18] | Plant response rating (0 to 100), Pigweed ([9]; preemergence, Rate 250 g/ha) | Plant response rating, Bermudagrass [10, 18] | Plant response rating, Lambsquarters [11, 18] | Plant response rating, Lambsquarters [11, 19] | Plant response rating (0 to 100), Lambsquarters ([11]; preemergence, Rate 250 g/ha) | Plant response rating, Lambsquarters [11, 20]
70: Plant response rating (0 to 100 where 0 is no effect and 100 is complete control), Bermudagrass ([10]; preemergence, Rate 250 g/ha) | Plant response rating, Bermudagrass [10, 20] | Plant response rating, Kochia (kochia (Kochia scoparia); [18])
80: Plant response rating, Cupgrass, Woolly [6, 18] | Plant response rating, Pigweed [9, 20] | Plant response rating, Ragweed, Common [13, 18]
20: Plant response rating, Foxtail, Giant [5, 20] | Plant response rating, Pigweed [9, 19] | Plant response rating, Soybean (soybean (Glycine max); [18]) | Plant response rating (0 to 100), Soybean (soybean (Glycine max); preemergence, Rate 250 g/ha) | Plant response rating (0 to 100), Kochia (kochia (Kochia scoparia); preemergence, Rate 250 g/ha) | Plant response rating, Velvetleaf [15, 18] | Plant response rating (0 to 100), Velvetleaf ([15]; preemergence, Rate 250 g/ha)
40: Plant response rating, Cupgrass, Woolly [6, 20]
30: Plant response rating, Lambsquarters [3, 16] | Plant response rating, Sunflower (Sunflower [7]; Rate 500 g/ha, scale 0 to 100)
90: Plant response rating (0 to 100), Foxtail, Giant ([5]; preemergence, Rate 250 g/ha)
60: Plant response rating, Surinam grass [14, 18]
50: Plant response rating, Lambsquarters [3, 17] | Plant response rating (0 to 100), Cupgrass, Woolly ([6]; preemergence, Rate 250 g/ha) | Plant response rating (0 to 100), Surinam grass ([14]; preemergence, Rate 250 g/ha)
10: Plant response rating, Cocklebur [2, 17]
0: Plant response rating (0 to 100), Sunflower (Sunflower [1]; Rate 250 g/ha) | Plant response rating, Wild Oat (wild oat (Avena fatua); [16]) | Plant response rating, Wild Oat (wild oat (Avena fatua); [17]) | Plant response rating, Cocklebur [2, 16] | Plant response rating, Crabgrass [4, 16] | Plant response rating, Crabgrass [4, 17] | Plant response rating, Foxtail, Giant [5, 19] | Plant response rating, Cupgrass, Woolly [6, 19] | Plant response rating, Nightshade (Nightshade; Rate 62 g/ha; scale 0 to 100, 0 no effect, 100 complete control) | Plant response rating, Nightshade (Nightshade; [21]) | Plant response rating, Nightshade (Nightshade; Rate 500 g/ha, scale 0 to 100) | Plant response rating, Sunflower (Sunflower [7]; [19]) | Plant response rating, Cocklebur [8, 18] | Plant response rating, Cocklebur [8, 19] | Plant response rating (0 to 100), Cocklebur ([8]; preemergence, Rate 250 g/ha) | Plant response rating, Cocklebur [8, 20] | Plant response rating, Soybean (soybean (Glycine max); [19]) | Plant response rating, Soybean (soybean (Glycine max); [20]) | Plant response rating, Bermudagrass [10, 19] | Plant response rating, Johnsongrass [12, 18] | Plant response rating, Johnsongrass [12, 19] | Plant response rating (0 to 100), Johnsongrass ([12]; preemergence, Rate 250 g/ha) | Plant response rating, Johnsongrass [12, 20] | Plant response rating, Ragweed, Common [13, 19] | Plant response rating, Ragweed, Common [13, 20] | Plant response rating, Corn (corn (Zea mays); [18]) | Plant response rating, Corn (corn (Zea mays); [19]) | Plant response rating (0 to 100), Corn (corn (Zea mays); preemergence, Rate 250 g/ha) | Plant response rating, Corn (corn (Zea mays); [20]) | Plant response rating, Kochia (kochia (Kochia scoparia); [19]) | Plant response rating, Kochia (kochia (Kochia scoparia); [20]) | Plant response rating, Surinam grass [14, 19] | Plant response rating, Surinam grass [14, 20] | Plant response rating, Velvetleaf [15, 19] | Plant response rating, Velvetleaf [15, 20]

COc1cc(N2CCC(n3ccc(C(C)C)n3)C2=O)ccc1C (stereo not drawn) [Compound 85]
50: Plant response rating, Crabgrass [4, 17] | Plant response rating, Johnsongrass [12, 21]
90: Plant response rating, Lambsquarters [3, 17] | Plant response rating, Nightshade (Nightshade; Rate 125 g/ha; scale 0 to 100, 0 no effect, 100 complete control) | Plant response rating, Ragweed, Common [13, 22]
40: Plant response rating, Cocklebur [2, 16] | Plant response rating, Soybean (soybean (Glycine max); [21]) | Plant response rating, Soybean (soybean (Glycine max); [23])
70: Plant response rating (0 to 100), Sunflower (Sunflower [1]; Rate 500 g/ha) | Plant response rating, Sunflower (Sunflower [7]; [21]) | Plant response rating, Velvetleaf [15, 21] | Plant response rating, Velvetleaf [15, 22]
20: Plant response rating, Wild Oat (wild oat (Avena fatua); [17]) | Plant response rating, Crabgrass [4, 16] | Plant response rating, Soybean (soybean (Glycine max); [22])
0: Plant response rating, Wild Oat (wild oat (Avena fatua); [16])
30: Plant response rating, Lambsquarters [3, 16] | Plant response rating, Corn (corn (Zea mays); [21]) | Plant response rating, Corn (corn (Zea mays); [22]) | Plant response rating, Surinam grass [14, 21] | Plant response rating, Surinam grass [14, 22]
80: Plant response rating, Nightshade (Nightshade; Rate 62 g/ha, scale 0 to 100) | Plant response rating (0 to 100), Johnsongrass ([12]; preemergence, Rate 250 g/ha) | Plant response rating (0 to 100), Corn (corn (Zea mays); preemergence, Rate 500 g/ha) | Plant response rating, Velvetleaf [15, 23]
60: Plant response rating, Foxtail, Giant [5, 22] | Plant response rating, Cocklebur [8, 21] | Plant response rating, Cocklebur [8, 22] | Plant response rating (0 to 100), Cocklebur ([8]; preemergence, Rate 250 g/ha) | Plant response rating (0 to 100), Cocklebur ([8]; preemergence, Rate 500 g/ha) | Plant response rating (0 to 100), Corn (corn (Zea mays); preemergence, Rate 250 g/ha)
100: Plant response rating, Cocklebur [2, 17] | Plant response rating, Foxtail, Giant [5, 21] | Plant response rating (0 to 100), Foxtail, Giant ([5]; preemergence, Rate 250 g/ha) | Plant response rating (0 to 100), Foxtail, Giant ([5]; preemergence, Rate 500 g/ha) | Plant response rating, Cupgrass, Woolly [6, 21] | Plant response rating, Cupgrass, Woolly [6, 22] | Plant response rating (0 to 100), Cupgrass, Woolly ([6]; preemergence, Rate 250 g/ha) | Plant response rating (0 to 100), Cupgrass, Woolly ([6]; preemergence, Rate 500 g/ha) | Plant response rating, Nightshade (Nightshade; Rate 250 g/ha, scale 0 to 100, 0 no effect, 100 complete control) | Plant response rating, Pigweed [9, 21] | Plant response rating, Pigweed [9, 22] | Plant response rating (0 to 100), Pigweed ([9]; preemergence, Rate 500 g/ha) | Plant response rating, Pigweed [9, 23] | Plant response rating (0 to 100), Soybean (soybean (Glycine max); preemergence, Rate 500 g/ha) | Plant response rating, Bermudagrass [10, 21] | Plant response rating, Bermudagrass [10, 22] | Plant response rating (0 to 100 where 0 is no effect and 100 is complete control), Bermudagrass ([10]; preemergence, Rate 250 g/ha) | Plant response rating (0 to 100 where 0 is no effect and 100 is complete control), Bermudagrass ([10]; preemergence, Rate 500 g/ha) | Plant response rating, Lambsquarters [11, 21] | Plant response rating, Lambsquarters [11, 22] | Plant response rating (0 to 100), Lambsquarters ([11]; preemergence, Rate 500 g/ha) | Plant response rating, Lambsquarters [11, 23] | Plant response rating (0 to 100), Johnsongrass ([12]; preemergence, Rate 500 g/ha) | Plant response rating, Ragweed, Common [13, 21] | Plant response rating (0 to 100), Ragweed, Common ([13]; preemergence, Rate 500 g/ha, visual evaluation after 12 to 14 days) | Plant response rating, Ragweed, Common [13, 23] | Plant response rating, Kochia (kochia (Kochia scoparia); [21]) | Plant response rating, Kochia (kochia (Kochia scoparia); [22]) | Plant response rating (0 to 100), Kochia (kochia (Kochia scoparia); preemergence, Rate 250 g/ha) | Plant response rating (0 to 100), Kochia (kochia (Kochia scoparia); preemergence, Rate 500 g/ha) | Plant response rating (0 to 100), Surinam grass ([14]; preemergence, Rate 250 g/ha) | Plant response rating (0 to 100), Surinam grass ([14]; preemergence, Rate 500 g/ha) | Plant response rating (0 to 100), Velvetleaf ([15]; preemergence, Rate 500 g/ha)

— US7138361B2, “Herbicidal heterocycles” (E. I. du Pont de Nemours and Company, priority 2000, dated 2006)
